Measured values reported in US11291693B2, “Bacteria engineered to treat metabolic diseases” (Synlogic Operating Company, Inc., priority 2015, dated 2022).

What was measured:
[1] = tested on: PnsrR-GFP reporter construct; test: Nitric oxide-inducible GFP reporter assay, fluorescence plate reader; format: cell-based, E. coli Nissle; conditions: NO donor DETA-NO, two-fold decreased across a range of concentrations; relative florescence units; FIG. 28
[2] = tested on: dipeptidyl peptidase IV (DPP-IV); conditions: cited from earlier work; for resistance to DPPIV mediated degradation / cleavage: short description of a known GLP-1R agonist in Table 10, in words
[3] = tested on: rat intestinal epithelial cells; conditions: cited from earlier work
[4] = tested on: Ptet-GFP reporter construct; test: ATC-inducible GFP reporter assay, fluorescence plate reader; format: cell-based, E. coli Nissle; conditions: two-fold decreased inducer across a range of concentrations; relative florescence units; FIG. 28

Compound: NCCN(CCN)/[N+]([O-])=N/O [NO, diethylenetriamine-nitric oxide adduct]
- induction of GFP expression in PnsrR-GFP reporter construct [1]: able to induce the expression of GFP

Compound: GLP-1: glucagon-like peptide 1, produced by intestinal cells
- stability ([2]; rapid degradation catalyzed by DPP-IV): 3 to 5 min

Compound: GLP-1(1-37): full-length form of GLP-1, SEQ ID NO: 73 (HDEFERHAEGTFTSDVSSYLEGQAAKEFIAWLVKGRG)
- effect on intestinal epithelial cells [3]: stimulate rat intestinal epithelial cells to become glucose-responsive insulin-secreting cells

Compound: Dulaglutide
- resistance to DPPIV mediated degradation / cleavage [2]: protection from DPPIV

Compound: anhydrous tetracycline [ATC]
- induction of GFP expression in Ptet-GFP reporter construct [4]: able to induce the expression of GFP

Compound: Taspoglutide
- resistance to DPPIV mediated degradation / cleavage [2]: avoid degradation by DPPIV,

Compound: GLP-1(7-37): circulating active form of GLP-1, SEQ ID NO: 75
- biological half-life in blood ([2]; blood): a few minutes
